Eleven molecules from patent US11427586B2, “1,2,4-oxadiazole derivatives as liver X receptor agonists” (NOVARTIS AG, priority 2019, dated 2022) can be followed below.

One assay deals with SZ95 sebocytes. Put plainly: Sentinel Lipid Assay (SLA), desaturation index in SZ95 sebocytes. Conditions: Homo sapiens, 72 h; for EC50: read-out: SLA EC50. Format: cell-based. The method in brief:
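SZ95 human sebocytes on fibronectin-coated plates, dosed 72 h at 37 °C with 1:3 dilutions from 10 μM; lipids extracted with deuterated triglyceride internal standards and quantified by LC-MS/MS (MRM) as 11 sentinel lipids. Desaturation index from elastic-net coefficients, normalized to DMSO; Amax relative to a reference LXR agonist.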

For a further assay, the system named is SCD1. Nature of the assay: Measurement of SCD1 expression in SZ95-SCD1-HiBit cells (HiBiT assay). Format: cell-based. Conditions: Homo sapiens; for EC50: read-out: HiBit EC50.
The mark [1] stands for this setting: normalized Amax based on the reference compound Amax of 100%, read-out: SLA Normalized Amax.
The mark [2] stands for this setting: SZ95 cells, desaturation index, lowest dose used 4.6 nM.
Setting [3] is: SZ95 cells, compared to reference compound, read-out: SLA Amax.
Where [4] appears, read: 48 h, normalized Amax based on the reference compound Amax of 100%, read-out: HiBit Normalized Amax.
Where [5] appears, read: SZ95-SCD1-HiBit cells, 48 h, SCD1 protein production, luminescence, initial dilution 1:3 in DMSO.
[6] abbreviates: SZ95-SCD1-HiBit cells, 48 h, compared to reference compound, read-out: HiBit Amax.
Where [7] appears, read: 48 h, read-out: HiBit Normalized Amax.

By EC50 is commonly meant the concentration at which the effect is half-maximal.

The structures appear in SMILES notation. Read-outs that look alike come from different tables or passages of the source. Where only a bound is given, the exact number is not on record here.

`CC1(C)C(=O)N(Cc2nc(-c3ccc(Oc4ccccc4S(C)(=O)=O)c(C(F)(F)F)c3)no2)C(=O)N1CCN1CCOCC1` [Compound 55, 5,5-dimethyl-3-((3-(4-(2-(methylsulfonyl)phenoxy)-3-(trifluoromethyl)phenyl)-1,2,4-oxadiazol-5-yl)methyl)-1-(2-morpholinoethyl)imidazolidine-2,4-dione]: the Emax with SZ95 sebocytes (setting [1]) came out at 161%; in the assay with SZ95 sebocytes (setting [3]), 154%; with SCD1 (setting [4]) it was 91.6%; with SCD1 (setting [6]), 87.1%. Besides, the EC50 in the assay with SZ95 sebocytes (setting [2]) was no more than 4.6 nM; in the assay with SCD1 (setting [5]), 4.43 nM.
As to `O=C1N(Cc2nc(-c3ccc(Oc4ccccc4S(=O)(=O)CC4CCCO4)c(C(F)(F)F)c3)no2)C(=O)C2(CCOCC2)N1CCN1CCOCC1` (stereo not drawn) [Compound 56, 1-(2-morpholinoethyl)-3-((3-(4-(2-(((tetrahydrofuran-2-yl)methyl)sulfonyl)phenoxy)-3-(trifluoromethyl)phenyl)-1,2,4-oxadiazol-5-yl)methyl)-8-oxa-1,3-diazaspiro[4.5]decane-2,4-dione], the Emax in the assay on SZ95 sebocytes (setting [1]) came to 187%; with SZ95 sebocytes (setting [3]), 180%; with SCD1 (setting [4]), 76.6%; in the assay on SCD1 (setting [6]), 72.8%. In addition, the EC50 was no more than 4.6 nM in the assay on SZ95 sebocytes (setting [2]) and 1.01 nM in the assay on SCD1 (setting [5]).
Consider `COCCS(=O)(=O)c1ccccc1Oc1ccc(-c2noc(CN3C(=O)N(CCN4CCOCC4)C(C)(C)C3=O)n2)cc1C(F)(F)F` [Compound 58, 3-((3-(4-(2-((2-methoxyethyl)sulfonyl)phenoxy)-3-(trifluoromethyl)phenyl)-1,2,4-oxadiazol-5-yl)methyl)-5,5-dimethyl-1-(2-morpholinoethyl)imidazolidine-2,4-dione], for which the Emax turned out to be 167% with SZ95 sebocytes (setting [1]), 161% in the assay with SZ95 sebocytes (setting [3]), 107% in the assay on SCD1 (setting [4]) and 102% with SCD1 (setting [6]). The EC50 is no more than 4.6 nM with SZ95 sebocytes (setting [2]) and 0.281 nM in the assay with SCD1 (setting [5]).
Regarding `COCCN(CCOC)CCS(=O)(=O)c1ccccc1Oc1ccc(-c2noc(CN3C(=O)N(CCN4CCOCC4)C(C)(C)C3=O)n2)cc1C(F)(F)F` [Compound 61, 3-((3-(4-(2-((2-(bis(2-methoxyethyl)amino)ethyl)sulfonyl)phenoxy)-3-(trifluoromethyl)phenyl)-1,2,4-oxadiazol-5-yl)methyl)-5,5-dimethyl-1-(2-morpholinoethyl)imidazolidine-2,4-dione], the Emax with SZ95 sebocytes (setting [1]) was 178%; in the assay on SZ95 sebocytes (setting [3]) it was 171%; with SCD1 (setting [4]) it was 78.9%; in the assay on SCD1 (setting [6]), 75%. The results for the EC50 in the assay with SZ95 sebocytes (setting [2]) and in the assay on SCD1 (setting [5]) were no more than 4.6 nM and 9.1 nM, respectively.
In the case of `CC(COc1ccc(-c2noc(CN3C(=O)N(CCC4CCOCC4)C4(CCN(C5CCC5)CC4)C3=O)n2)cc1C(F)(F)F)(C(F)(F)F)C(F)(F)F` [Compound 63, 8-cyclobutyl-1-(2-(tetrahydro-2H-pyran-4-yl)ethyl)-3-((3-(4-(3,3,3-trifluoro-2-methyl-2-(trifluoromethyl)propoxy)-3-(trifluoromethyl)phenyl)-1,2,4-oxadiazol-5-yl)methyl)-1,3,8-triazaspiro[4.5]decane-2,4-dione], the Emax is 72.2% in the assay on SZ95 sebocytes (read-out: SLA Amax); 75.2% with SZ95 sebocytes (read-out: SLA Normalized Amax); 74.6% with SCD1 (48 h, read-out: HiBit Amax); 78.4% in the assay with SCD1 (setting [7]). Moreover, the EC50 in the assay with SZ95 sebocytes was no more than 4.6 nM; with SCD1 (48 h), 0.217 nM.
Take `CC1(C)C(=O)N(Cc2nc(-c3ccc(Oc4ccccc4S(=O)(=O)CC4CCCO4)c(C(F)(F)F)c3)no2)C(=O)N1CCN1CCOCC1` (stereo not drawn) [Compound 64, 5,5-dimethyl-1-(2-morpholinoethyl)-3-((3-(4-(2-(((tetrahydrofuran-2-yl)methyl)sulfonyl)phenoxy)-3-(trifluoromethyl)phenyl)-1,2,4-oxadiazol-5-yl)methyl)imidazolidine-2,4-dione]: the Emax in the assay with SZ95 sebocytes (read-out: SLA Amax) was 154%; with SZ95 sebocytes (read-out: SLA Normalized Amax), 160%; in the assay on SCD1 (48 h, read-out: HiBit Amax), 97.9%; with SCD1 (setting [7]) it was 103%. Moreover, the results for the EC50 in the assay on SZ95 sebocytes and in the assay with SCD1 (48 h) were no more than 4.6 nM and 0.063 nM, respectively.
On to `CC1(C)C(=O)N(Cc2nc(-c3ccc(Oc4cnccc4C(F)(F)F)c(C(F)(F)F)c3)no2)C(=O)N1CCN1CCOCC1` [Compound 65, 5,5-dimethyl-1-(2-morpholinoethyl)-3-((3-(3-(trifluoromethyl)-4-((4-(trifluoromethyl)pyridin-3-yl)oxy)phenyl)-1,2,4-oxadiazol-5-yl)methyl)imidazolidine-2,4-dione], for which the Emax with SZ95 sebocytes (setting [1]) was 108%; in the assay with SZ95 sebocytes (setting [3]) it was 104%; with SCD1 (setting [4]) it was 69.8%; in the assay with SCD1 (setting [6]), 66.4%. The results for the EC50 in the assay with SZ95 sebocytes (setting [2]) and in the assay with SCD1 (setting [5]) were no more than 4.6 nM and 15.1 nM, respectively.
`CC1(C)C(=O)N(Cc2nc(-c3ccc(OCCC(F)(F)F)c(C(F)(F)F)c3)no2)C(=O)N1CCN1CCOCC1` [Compound 66, 5,5-dimethyl-1-(2-morpholinoethyl)-3-((3-(3-(trifluoromethyl)-4-(3,3,3-trifluoropropoxy)phenyl)-1,2,4-oxadiazol-5-yl)methyl)imidazolidine-2,4-dione]: the Emax in the assay with SZ95 sebocytes (setting [1]) was 99%; in the assay with SZ95 sebocytes (setting [3]), 95.1%; with SCD1 (setting [4]) it was 82.3%; with SCD1 (setting [6]) it was 78.2%. The results for the EC50 with SZ95 sebocytes (setting [2]) and in the assay with SCD1 (setting [5]) were 21.1 nM and 187 nM, respectively.
In the case of `CC(C)CS(=O)(=O)c1ccccc1Oc1ccc(-c2noc(CN3C(=O)N(CCN4CCOCC4)C4(CCN(C(=O)CCCCC(=O)O)CC4)C3=O)n2)cc1C(F)(F)F` [Compound 67, 6-(3-((3-(4-(2-(isobutylsulfonyl)phenoxy)-3-(trifluoromethyl)phenyl)-1,2,4-oxadiazol-5-yl)methyl)-1-(2-morpholinoethyl)-2,4-dioxo-1,3,8-triazaspiro[4.5]decan-8-yl)-6-oxohexanoic acid], the Emax in the assay on SZ95 sebocytes (setting [1]) amounted to 103%; in the assay on SZ95 sebocytes (setting [3]), 99.1%; in the assay on SCD1 (setting [4]), 88.9%; in the assay with SCD1 (setting [6]), 84.5%. In addition, the EC50 with SZ95 sebocytes (setting [2]) was no more than 4.6 nM; in the assay with SCD1 (setting [5]), 3.94 nM.
Regarding `CC1(C)NC(=O)N(Cc2nc(-c3ccc(Oc4ccccc4C(F)(F)F)c(C(F)(F)F)c3)no2)C1=O` [Compound 71, 5,5-dimethyl-3-((3-(3-(trifluoromethyl)-4-(2-(trifluoromethyl)phenoxy)phenyl)-1,2,4-oxadiazol-5-yl)methyl)imidazolidine-2,4-dione], the Emax in the assay with SZ95 sebocytes (setting [1]) came out at 51.9%; with SZ95 sebocytes (setting [3]), 49.8%; in the assay on SCD1 (setting [4]), 68.7%; with SCD1 (setting [6]), 65.3%. Further, the results for the EC50 in the assay with SZ95 sebocytes (setting [2]) and with SCD1 (footnote a: initial dilution for the compound 1:100 in assay medium rather than 1:3 in DMSO) were greater than 10000 nM and 139 nM, respectively.
`O=C(O)Cc1cccc(OCCCN(Cc2cccc(C(F)(F)F)c2Cl)CC(c2ccccc2)c2ccccc2)c1` [Reference Compound, 2-(3-(3-((2-chloro-3-(trifluoromethyl)benzyl)(2,2-diphenylethyl)amino)propoxy)phenyl)acetic acid, reference compound]: the Emax in the assay on SZ95 sebocytes (setting [1]) is 100%; in the assay with SZ95 sebocytes (setting [3]) it was 96%; with SCD1 (setting [4]), 100%; in the assay with SCD1 (setting [6]) it was 95.1%. For the same molecule, the EC50 in the assay with SZ95 sebocytes (setting [2]) was 87.3 nM; with SCD1 (setting [5]) it was 65.4 nM.
